Reference: paper PMC7403315, “Cyclic peptide FXII inhibitor provides safe anticoagulation in a thrombosis model and in artificial lungs” (Nature Communications, 2020)
Several values for one entry are separate records, joined by “and”; a condition that tells them apart may be missing. Identical values can stand only once. Entries after “also recorded” stand apart in the source; their conditions may differ. Residues, ends and D or L forms follow the SMILES beside them.

Columns and labels:
[1] = system: ferric chloride-induced thrombosis; assay: FeCl3 injury thrombosis model in mesenteric arterioles in mice; format: in vivo, mouse
Experimental: A model of thrombosis in mesenteric arterioles using intravital microscopy was performed according to Angelillo-Scherrer A. et al.[46] with minor modifications. C57BL/6J wild-type mice (male, 10–20 weeks old, 25–30 g, Charles River) were injected intravenously with Rhodamine 6G (100 μl, 1 mM, ACROS Organics product 41902) to fluorescently label the platelets and leucocytes. The mice were injected subcutaneously over the shoulders with FXII900 (5 or 25 mg kg^−1, 0.5 mg ml^−1 in PBS, pH = 7.4) or the negative control FXII901 (5 or 25 mg kg^−1, 0.5 mg ml^−1 in PBS, pH = 7.4), or intravenously (retro-orbital) with 200 IU kg^−1 heparin, and subsequently anesthetized with ketamine (80 mg kg^−1) and xylazine (16 mg kg^−1) via intraperitoneal injection. An abdominal midline incision was made to expose the mesenteric arterioles which were imaged by intravital microscopy using a Mikron IVM500 microscope (Mikron Instruments) coupled with a 50 W mercury lamp (HBO 50 microscope illuminator, Zeiss) attached to combined blue (exciter 455DF70, dichroic 515DRLP, and emitter 515ALP) and green (exciter 525DF45, dichroic 560DRLP, and emitter 565ALP) filter blocks. […] The blood flow, clot formation and vessel occlusion were monitored for 20 or 25 min wherein images were recorded every minute using a digital video cassette recorder (DSR-11, Sony) and analyzed using ImageJ software (version 1.52). Mice were euthanized by final bleeding and cervical dislocation. Time to clot formation and full occlusion of the blood vessel were determined as follows. Clot formation was defined as the formation of a clear aggregation with a diameter of around 10 µm or larger. Occlusion was defined as a clot covering the full diameter of the vessel. Mice showing no speckled pattern at the site of FeCl3 application were assumed to be not injured at the blood vessel and were excluded from the analysis.

[2] = system: hemostasis (tail bleeding); assay: Tail bleeding time and volume (tail transection); conditions: mice, 2 mm tail transection, peptides 25 mg kg^−1 SC, heparin 200 IU kg^−1 IV
Experimental: Mice (8- to 10-week-old) were anesthetized with pentobarbital (50 mg kg^−1, IP), treated with PBS (IV, retro-orbital), 200 IU kg^−1 heparin (IV, retro-orbital), 25 mg kg^−1 FXII900 (SC) or 25 mg kg^−1 FXII901 (SC), and put on a 37 °C heating pad. After 5 min, the distal tail was transected at 2 mm with a disposable surgical blade, and the diameter measured to confirm that it is > 1 mm. The tail was placed in a 50 ml falcon tube filled with phosphate-buffered saline (warmed to 37 °C) and the bleeding time was recorded. The total blood loss was determined by measuring the absorption at 540 nm.

[3] = system: coagulation in artificial lung; assay: Extracorporeal circulation (veno-venous ECMO, artificial lung) in rabbits
Experimental: New Zealand white rabbits of 3.2–4.2 kg (Charles River) were anesthetized via intramuscular injections of ketamine (30 mg kg^−1) and xylazine (5 mg kg^−1). One of the ear veins was catheterized via a 24G winged catheter, and the rabbits were intubated with a 3.0 endotracheal tube. The animals were kept anesthetized throughout the four-hour experiment via inhaled isoflurane (2%) and were ventilated with a peak inspiratory pressure (PIP) of < 20 cmH2O, positive end expiratory pressure of 5 mmHg, tidal volume of 4–6 ml kg^−1, and a respiratory rate of 22–60 breaths per min. Tidal volume and respiratory rate were adjusted to maintain normal arterial blood gases and the listed PIP. Phenylephrine was applied intravenously at a rate of 0.5–5 μg kg^−1 min^−1 to maintain blood pressure. For monitoring blood pressure and collecting blood samples, the rabbits’ right or left carotid arteries were cannulated using a 16-gauge angiocatheter (Becton Dickinson) and were secured with silk ties. The device and circuit were first primed with filtered CO2 and then with saline (NaCl, 0.9% [w/v]) containing solumedrol (30 mg kg^−1). At this point, rabbits of the inhibitor-treated group were injected with 2 mg kg^−1 of FXII900 as a 2 mM solution in PBS (pH 7.4) via the ear vein and the circuit was connected to the rabbits via a venous/venous ECMO configuration using a 14-gauge angiocatheter (Becton Dickinson) and a 6″ pressure tubing that was cut to length from a 24″ pressure tubing (Edwards Lifesciences) in the right and left internal jugular veins, respectively. The circuit was placed in a roller pump (Cobe), and the blood flow was set to 45 ml per min. After connecting the extracorporeal circuit, rabbits of the inhibitor-treated group were infused with 0.075 mg kg^−1 min^−1 FXII900 via the ear vein for the entire duration of the study. Rabbits treated with heparin were initially infused with 60 IU h^−1 (100 IU ml^−1) starting before connection to the circuit. The drip rate was adjusted based on the following nomogram to maintain the ACT in a range between 220 and 300 s. ACT > 320 s: decrease infusion rate by 12 IU h^−1, 320 s > ACT > 300 s: decrease infusion rate by 6 IU h^−1, 300 s > ACT > 220 s: maintain heparin infusion rate, 220 s > ACT > 200 s: increase infusion rate by 6 IU h^−1, 200 s > ACT > 180 s: increase infusion rate by 12 IU h^−1, ACT < 180 s bolus 100 U (1 ml). After four hours, the animals were euthanized by potassium chloride (2 mg kg^−1, IV). At the end of the experiment, 5 ml of heparin was run through the artificial lung while it was still connected to the rabbits.

FXIIa = conditions: cited from earlier work
[4] = repeat study, 20 min, heparin 200 IU kg^−1, n = 10
[5] = ECMO 4 h, FXII900 2 mg kg^−1 bolus + 0.075 mg kg^−1 min^−1, heparin to ACT 220–300 s

Row | Compound | Clot (time to clot formation), individual mice ([1]; 200 U kg-1) | Occlusion (time to full occlusion), individual mice ([1]; 200 U kg-1) | mice showing blood clotting [1, 4] | mice showing vessel occlusion [1, 4] | bleeding time ([2]; 30 min monitored) | blood loss [2] | aPTT prolongation [3, 5] | activated clotting time (ACT) prolongation [3, 5] | bleeding time prolongation ([3]; ECMO, all time points) | volume of the clot in relation to the device volume ([3]; ECMO, end of experiment) | bleeding time (ear incision) ([3]; ECMO, throughout the experiment) | IC50 (FXIIa)
1 | heparin | 10 min (2×) and 15 min (3×) and 13 min | 19 min | six | one | bled essentially continuously throughout the monitored 30 min period; also recorded: constantly bleeding throughout the 30 min period | medium to high blood loss; also recorded: either a small (3 mice) or large loss of blood (3 mice); also recorded: lost a large volume of blood | 1.5 fold | 2 fold | 2 fold | 5% | 5 to 10 min | 
2 | NC(N)=NCCC[C@H](NC(=O)[C@H](Cc1ccccc1)NC(=O)[C@H]1CCCN1)C(=O)CCl [PCK, H-D-Pro-Phe-Arg-chloromethylketone] (HELM PEPTIDE1{[dP].F.R.[ClC[*:1]]}$$$$V2.0) |  |  |  |  |  |  |  |  |  |  |  | 180 nM
